Laboratory results from patent US6716987B1, “Derivatives of benzofuran or benzodioxazole compounds” (Kyowa Hakko Kogyo Co., Ltd., priority 1995, dated 2004).

Key:
[1] = target: T1, phosphodiesterase 4A (Homo sapiens, UniProt P27815); assay: Recombinant human PDE4A assay; format: biochemical; conditions: for inhibition at 0.1 µM: 10^−7 M, read-out: Enzyme Inhibitory Activity (%, 10^−7 M)
T1 construct: made in house; host or cells: E. coli

[2] = test system: cAMP-specific phosphodiesterase (PDE IV); assay: Inhibition of the PDE IV enzyme derived from a dog trachea; format: biochemical; conditions: test compound 10^−6 M; PDE IV from dog tracheal smooth muscle; substrate cAMP 1 μM
Summary of the method: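 Enzyme purified from dog tracheal smooth muscle; [3H]cAMP substrate at 1 μM final in 50 mM BES pH 7.2, 1 mM MgCl2, 0.1 mg/ml soybean trypsin inhibitor, 30° C for 10–30 min, 1.7% DMSO final. After HCl stop, product converted to adenosine by 5′-nucleotidase, separated on DEAE-Sephadex and scintillation-counted.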

T1 sequence (P27815 224-886 limits assumed): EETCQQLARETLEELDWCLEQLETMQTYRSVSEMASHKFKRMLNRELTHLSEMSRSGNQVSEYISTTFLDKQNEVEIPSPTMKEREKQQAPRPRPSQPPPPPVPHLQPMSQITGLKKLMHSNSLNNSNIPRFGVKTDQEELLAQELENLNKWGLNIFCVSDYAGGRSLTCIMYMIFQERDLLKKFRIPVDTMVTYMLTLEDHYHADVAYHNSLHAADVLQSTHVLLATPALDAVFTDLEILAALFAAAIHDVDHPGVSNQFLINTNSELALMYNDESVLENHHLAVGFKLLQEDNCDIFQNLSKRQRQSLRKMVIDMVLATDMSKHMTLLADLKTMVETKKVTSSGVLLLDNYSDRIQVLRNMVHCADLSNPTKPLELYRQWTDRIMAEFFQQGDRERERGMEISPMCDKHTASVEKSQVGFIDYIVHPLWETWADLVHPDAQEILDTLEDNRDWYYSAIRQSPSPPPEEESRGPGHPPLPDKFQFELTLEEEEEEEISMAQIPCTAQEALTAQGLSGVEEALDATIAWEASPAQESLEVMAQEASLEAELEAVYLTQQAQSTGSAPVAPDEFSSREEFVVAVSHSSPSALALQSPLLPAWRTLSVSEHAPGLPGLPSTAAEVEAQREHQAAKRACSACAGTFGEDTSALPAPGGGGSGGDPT

Structure (SMILES) | Enzyme Inhibitory Activity (%, 10^−7 M) [1] [%] | inhibition at 0.1 µM [1] [%] | melting point [°C] | Enzyme Inhibitory Activity (%, 10^−6 M) [2] [%]
COc1ccc(C(=O)Nc2c(Cl)cncc2Cl)c2cc(C(=O)c3ccccc3)oc12 [Compound 35] | 100 | – | – | –
COc1ccc(/C=C/c2c(Cl)cncc2Cl)c2cc(-c3ccccn3)oc12 [Compound 84, (E)-4-[2-(3,5-Dichloro-4-pyridyl)ethenyl]-7-methoxy-2-(2-pyridyl)benzofuran] | – | 98 | 157 to 158 | –
COc1ccc(C(=O)Cc2c(Cl)cncc2Cl)c2c1OC1(CCCCC1)C2 [Compound 101, 4-[2-(3,5-Dichloro-4-pyridyl)-1-oxoethyl]-7-methoxy-spiro[2,3-dihydrobenzofuran-2,1′-cyclohexane]] | – | 100 | 149 to 151 | –
COc1ccc(C(=O)Cc2ccncc2)c2c1OC1(CCCCC1)C2.Cl [Compound 102, 7-Methoxy-4-[1-oxo-2-(4-pyridyl)ethyl]-spiro[2,3-dihydrobenzofuran-2,1′-cyclohexane].hydrochloride] | 95 | – | – | –
COc1ccc(C(=O)Cc2c(Cl)cncc2Cl)c2cc(-c3ccncc3)oc12.Cl.Cl [Compound 114, 4-[2-(3,5-Dichloro-4-pyridyl)-1-oxoethyl]-7-methoxy-2-(4-pyridyl)benzofuran.2 hydrochloride] | 100 | – | – | –
COc1ccc(C(=O)Nc2c(Cl)cncc2Cl)c2c1OC(C)(C)CC2 [Compound 122, 5-(3,5-Dichloro-4-pyridylaminocarbonyl)-8-methoxy-2,2-dimethyl-3,4-dihydrobenzopyran] | – | – | 155 to 156 | 92
COc1ccc(C(=O)Nc2c(Cl)cncc2Cl)c2c1OC1(C=C2)CCCC1 [Compound 123, 5-(3,5-Dichloro-4-pyridylaminocarbonyl)-8-methoxy-spiro[benzopyran-2,1′-cyclopentane]] | – | 87 | 129 to 131 | –
COc1ccc(C=Cc2c(Cl)cncc2Cl)c2c1CC1(CCCC1)O2 [Compound 131, 7-[2-(3,5-Dichloro-4-pyridyl)ethenyl]-4-methoxy-spiro[2,3-dihydrobenzofuran-2,1′-cyclopentane]] | – | – | 99 to 101 | 51
COc1ccc(C(=O)Cc2c(Cl)cncc2Cl)c2c1CC1(CCCC1)O2 [Compound 132, 7-[2-(3,5-Dichloro-4-pyridyl)-1-oxoethyl]-4-methoxy-spiro[2,3-dihydrobenzofuran-2,1′-cyclopentane]] | – | – | 70 to 72 | 66
COc1ccc(C(=O)Nc2c(Cl)cncc2Cl)c2c1OC1(CCCC1)O2 [Compound 134, 7-(3,5-Dichloro-4-pyridylaminocarbonyl)-4-methoxy-spiro[1,3-benzodioxole-2,1′-cyclopentane]] | – | 100 | 168 to 170 | –
COc1ccc(C=Cc2c(Cl)cncc2Cl)c2c1OC1(CCCC1)O2 [Compound 138, 7-[2-(3,5-Dichloro-4-pyridyl)ethenyl]-4-methoxy-spiro[1,3-benzodioxole-2,1′-cyclopentane]] | – | 100 | 100 to 101 | –
COc1ccc(C(=O)Cc2c(Cl)cncc2Cl)c2c1OC1(CCCC1)O2 [Compound 140, 7-[2-(3,5-Dichloro-4-pyridyl)-1-oxoethyl]-4-methoxy-spiro[1,3-benzodioxole-2,1′-cyclopentane]] | – | 100 | – | –
COc1ccc(C(=O)Cc2ccncc2)c2c1OC1(CCCC1)O2.Cl [Compound 141, 4-Methoxy-7-[1-oxo-2-(4-pyridyl)ethyl]-spiro[1,3-benzodioxole-2,1′-cyclopentane].hydrochloride] | 76 | – | – | –
COc1ccc(C#Cc2ccncc2)c2c1OC1(CCCC1)C2 [Compound 142, 7-Methoxy-4-[2-(4-pyridyl)ethynyl]-spiro[2,3-dihydrobenzofuran-2,1′-cyclopentane]] | – | – | 128 to 131 | 76
COc1ccc(C(=O)Cc2c(Cl)cncc2Cl)c2c(CC(=O)OCCc3ccccc3)coc12 [Compound 153, 4-[2-(3,5-Dichloro-4-pyridyl)-1-oxoethyl]-7-methoxy-3-phenethyloxycarbonylmethylbenzofuran] | – | 94 | 183 to 184 | –
COc1ccc(C(=O)Cc2c(Cl)cncc2Cl)c2c(CC(=O)OCc3ccccc3[N+](=O)[O-])coc12 [Compound 154, 4-[2-(3,5-Dichloro-4-Pyridyl)-1-oxoethyl]-7-methoxy-3-[(2-nitrobenzyl)oxycarbonylmethyl]benzofuran] | – | 92 | 200 to 201 | –
COc1ccc(C(=O)Cc2c(Cl)cncc2Cl)c2c(CC(=O)NCc3ccccc3)coc12 [Compound 155, 3-Benzylaminocarbonylmethyl-4-[2-(3,5-dichloro-4-pyridyl)-1-oxoethyl]-7-methoxybenzofuran] | – | 96 | 244 to 246 | –
COc1ccc(C(=O)Cc2c(Cl)cncc2Cl)c2c(CC(=O)Nc3cccnc3)coc12 [Compound 156, 4-[2-(3,5-Dichloro-4-pyridyl)-1-oxoethyl]-7-methoxy-3-[(3-pyridyl)aminocarbonylmethyl]benzofuran] | – | 90 | 252 to 255 | –
COc1ccc(C(=O)Cc2c(Cl)cncc2Cl)c2c(CC(=O)NCc3ccccn3)coc12.Cl.Cl [Compound 157, 4-[2-(3,5-Dichloro-4-pyridyl)-1-oxoethyl]-7-methoxy-3-[(2-pyridylmethyl)aminocarbonylmethyl]benzofuran.2 hydrochloride] | 89 | – | – | –
CCOC(=O)c1coc2c(OC)ccc(C(=O)Cc3c(Cl)cncc3Cl)c12 [Compound 159, Ethyl 4-[2-(3,5-dichloro-4-pyridyl)-1-oxoethyl]-7-methoxybenzofuran-3-carboxylate] | – | 99 | – | –
COc1ccc(C(=O)Cc2c(Cl)cccc2Cl)c2cc(C(=O)c3ccccn3)oc12 [Compound 160, 4-[2-(2,6-Dichlorophenyl)-1-oxoethyl]-7-methoxy-2-(2-pyridylcarbonyl)benzofuran] | – | 91 | 228 to 229 | –
COc1ccc(C(=O)Cc2ccncc2)c2cc(C(=O)Nc3ccccc3)oc12.Cl [Compound 165, 7-Methoxy-4-[1-oxo-2-(4-pyridyl)ethyl]-2-(phenylaminocarbonyl)benzofuran.hydrochloride] | 64 | – | – | –
COc1ccc(C(=O)Nc2c(Cl)cccc2Cl)c2cc(C(=O)c3ccccc3)oc12 [Compound 168, 2-Benzoyl-4-[(2,6-dichiorophenyl)aminocarbonyl]-7-methoxybenzofuran] | 96 | – | – | –
COc1ccc(C(=O)Cc2c(Cl)cncc2Cl)c2c1OC1(CCCCCC1)O2 [Compound 177, 7-[2-(3,5-Dichloro-4-pyridyl)-1-oxoethyl)-4-methoxy-spiro[1,3-benzodioxole-2,1′-cycloheptane]] | – | 93 | – | –
COc1ccc(C(=O)Cc2c(Cl)c[n+]([O-])cc2Cl)c2c1OCCCCO2 [Compound 195, 7-[2-(3,5-dichloro-N-oxo-4-pyridyl)-1-oxoethyl]-10-methoxy-2,3,4,5-tetrahydro-1,6-benzodioxocin] | 93 | – | – | –
COc1ccc(C(=O)Nc2c(Cl)cncc2Cl)c2c1OC(C)(C)O2 [Compound 199, 7-(3,5-dichloro-4-pyridylaminocarbonyl)-4-methoxy-2,2-dimethyl-3,4-benzodioxole] | 57 | – | – | –
